The test system of series [1] is P388 murine lymphocytic leukemia cell line. As to the kind of experiment: Murine P388 lymphocytic leukemia inhibitory activity. In kind it is cell-based. The note with it: Mus musculus, P388, read-out: Murine P388 Lymphocytic Leukemia Inhibitory Activity (ED50).
The next series relates to BXPC-3 (pancreas). As to the kind of experiment: Human cancer cell growth inhibition, sulforhodamine B assay, BXPC-3. The note with it: BXPC-3, 48 h, read-out: Growth Inhibition of Human Cancer Cell Lines (GI50), BXPC-3. It counts as cell-based. The protocol: (§1) Cancer Cell Line Procedures. The human cancer cell growth inhibition data were determined using the standard sulforhodamine B assay of the US National Cancer Institute as previously described.^35 In short, cells in a 5% fetal bovine serum/RPMI1640 medium were inoculated in 96-well plates and incubated for 24 h. Next, serial dilutions of the samples were added. After 48 h, the plates were fixed with trichloroacetic acid, stained with sulforhodamine B, and read with an automated microplate reader. A growth inhibition of 50% (GI50 or the drug concentration causing a 50% reduction in the net protein increase) was determined from optical density data employing Immunosoft® software.
Background: The SRB assay estimates cell density from bound dye.

The subject of the next series is MCF-7 (breast). The experiment in a line: Human cancer cell growth inhibition, sulforhodamine B assay, MCF-7. The note with it: MCF7, 48 h, read-out: Growth Inhibition of Human Cancer Cell Lines (GI50), MCF-7. It counts as cell-based. The protocol: as §1
A further series relates to SF-268 (CNS). The experiment in a line: Human cancer cell growth inhibition, sulforhodamine B assay, SF-268. The note with it: SF-268, 48 h, read-out: Growth Inhibition of Human Cancer Cell Lines (GI50), SF-268. In kind it is cell-based. As for the experimental part: as §1
A further series has as its system NCI-H460 (lung). The experiment in a line: Human cancer cell growth inhibition, sulforhodamine B assay, NCI-H460. It counts as cell-based. As to conditions: NCI-H460, 48 h, read-out: Growth Inhibition of Human Cancer Cell Lines (GI50), NCI-H460. As for the experimental part: as §1
The next series has as its system KM20L2 (colon). As to the kind of experiment: Human cancer cell growth inhibition, sulforhodamine B assay, KM20L2. It counts as cell-based. As to conditions: KM-20L2, 48 h, read-out: Growth Inhibition of Human Cancer Cell Lines (GI50), KM20L2. As for the experimental part:
as §1

For another series, the system named is DU-145 (prostate). The experiment in a line: Human cancer cell growth inhibition, sulforhodamine B assay, DU-145. In kind it is cell-based. As to conditions: DU-145, 48 h, read-out: Growth Inhibition of Human Cancer Cell Lines (GI50), DU-145. The protocol:
as §1

The subject of series [2] is P388 murine lymphocytic leukemia cell line. As to conditions: footnote c: See Ref 25; cited from earlier work.

These results are taken from patent publication US11098052B2, “4-azapodophylotoxins compounds” (Arizona Board of Regents on behalf of Arizona State …, priority 2016, dated 2021).

Molecules are shown by their SMILES. Converted amounts (≈) assume the structure as drawn.

For orientation: GI50 means the concentration at which growth is held to half of that of the control. The term melting point denotes the temperature, or range, at which the solid turns liquid. `COc1cc(C2C3=C(COC3=O)N(Cc3ccc(F)cc3)c3cc4c(cc32)OCO4)cc(OC)c1OC` (stereo not shown) [Compound 23, 6,7-Methylenedioxy-4-(4-fluoro-benzyl)-9-(3,4,5-trimethoxyphenyl)-4,9-dihydro-3H-furo[3,4-b]quinolin-1-one] displayed a melting point of 246 to 247 °C. Also, in series [1], the IC50 worked out at 1.9 µg/mL (≈ 3.76 µM). Besides, the 50% growth inhibitory concentration (GI50) in the series with BXPC-3 (pancreas) worked out at 0.046 µg/mL (≈ 0.091 µM). Moreover, the GI50 in the series on MCF-7 (breast) is 0.037 µg/mL (≈ 0.0732 µM). In the series on SF-268 (CNS), the GI50 worked out at 0.03 µg/mL (≈ 0.0593 µM). In the series with NCI-H460 (lung), the GI50 was found to be 0.031 µg/mL (≈ 0.0613 µM). Besides, the GI50 in the series on KM20L2 (colon) was 0.033 µg/mL (≈ 0.0653 µM). In addition, the GI50 in the series with DU-145 (prostate) turned out to be 0.047 µg/mL (≈ 0.093 µM).

For `COc1cc(C2C3=C(COC3=O)N(CCc3ccccn3)c3cc4c(cc32)OCO4)cc(OC)c1OC` (stereo not shown) [Compound 24, 6,7-Methylenedioxy-4-(2-pyridin-2-yl-ethyl)-9-(3,4,5-trimethoxyphenyl)-4,9-dihydro-3H-furo[3,4-b]quinolin-1-one], the melting point lay within 239 to 241 °C. Besides, the IC50 in series [1] stood at 2.5 µg/mL (≈ 4.97 µM). Besides, in the series on BXPC-3 (pancreas), the GI50 amounted to 0.38 µg/mL (≈ 0.756 µM). Also, in the series with MCF-7 (breast), the GI50 worked out at 0.32 µg/mL (≈ 0.637 µM). Also, the GI50 with SF-268 (CNS) amounted to 0.33 µg/mL (≈ 0.657 µM). For the same molecule, the GI50 in the series with NCI-H460 (lung) was determined as 0.34 µg/mL (≈ 0.677 µM). Also, in the series with KM20L2 (colon), the GI50 was determined as 0.29 µg/mL (≈ 0.577 µM). Further, in the series on DU-145 (prostate), the GI50 turned out to be 0.42 µg/mL (≈ 0.836 µM).

In the case of `COc1cc(C2C3=C(COC3=O)N(C3CCCC3)c3cc4c(cc32)OCO4)cc(OC)c1OC` (stereo not shown) [Compound 18, 6,7-Methylenedioxy-4-(cyclopentyl)-9-(3,4,5-trimethoxyphenyl)-4,9-dihydro-3H-furo[3,4-b]quinolin-1-one], the melting point was in the range of 221 to 223 °C. For the same molecule, in series [1], the IC50 came to 15.3 µg/mL (≈ 32.9 µM). The GI50 in the series with BXPC-3 (pancreas) was determined as 0.083 µg/mL (≈ 0.178 µM). Moreover, the GI50 in the series with MCF-7 (breast) turned out to be 0.045 µg/mL (≈ 0.0967 µM). In addition, the GI50 in the series with SF-268 (CNS) was 0.062 µg/mL (≈ 0.133 µM). For the same molecule, the 50% growth inhibitory concentration (GI50) in the series with NCI-H460 (lung) was found to be 0.16 µg/mL (≈ 0.344 µM). Further, the GI50 with KM20L2 (colon) came to 0.12 µg/mL (≈ 0.258 µM). Also, the GI50 in the series on DU-145 (prostate) turned out to be 0.27 µg/mL (≈ 0.58 µM).

Consider `COc1cc(C2C3=C(COC3=O)N(C3CCCCC3)c3cc4c(cc32)OCO4)cc(OC)c1OC` (stereo not shown) [Compound 19, 6,7-Methylenedioxy-4-(cyclohexyl)-9-(3,4,5-trimethoxyphenyl)-4,9-dihydro-3H-furo[3,4-b]quinolin-1-one], for which the melting point is 235 to 237 °C. The IC50 in [1] worked out at 3.4 µg/mL (≈ 7.09 µM). Further, in the series with BXPC-3 (pancreas), the GI50 came out at 0.17 µg/mL (≈ 0.355 µM). Besides, in the series on MCF-7 (breast), the GI50 worked out at 0.052 µg/mL (≈ 0.108 µM). The GI50 in the series with SF-268 (CNS) came to 0.066 µg/mL (≈ 0.138 µM). The 50% growth inhibitory concentration (GI50) with NCI-H460 (lung) turned out to be 0.27 µg/mL (≈ 0.563 µM). In the series with KM20L2 (colon), the GI50 amounted to 0.24 µg/mL (≈ 0.5 µM). Also, the GI50 in the series with DU-145 (prostate) was found to be 0.27 µg/mL (≈ 0.563 µM).

For `COc1cc(C2C3=C(COC3=O)N(CCCO)c3cc4c(cc32)OCO4)cc(OC)c1OC` (stereo not shown) [Compound 14, 6,7-Methylenedioxy-4-(3-hydroxy-propyl)-9-(3,4,5-trimethoxyphenyl)-4,9-dihydro-3H-furo[3,4-b]quinolin-1-one], the melting point was 269 to 272 °C (dec.). Also, in series [1], the IC50 worked out at 0.28 µg/mL (≈ 0.615 µM). The GI50 in the series with BXPC-3 (pancreas) is 0.48 µg/mL (≈ 1.05 µM). Further, the GI50 in the series with MCF-7 (breast) was determined as 0.34 µg/mL (≈ 0.746 µM). Further, the concentration for 50% growth inhibition (GI50) in the series on SF-268 (CNS) is 0.36 µg/mL (≈ 0.79 µM). Moreover, the GI50 in the series on NCI-H460 (lung) worked out at 0.33 µg/mL (≈ 0.725 µM). For the same molecule, the GI50 with KM20L2 (colon) is 0.38 µg/mL (≈ 0.834 µM). The GI50 with DU-145 (prostate) worked out at 0.49 µg/mL (≈ 1.08 µM).

`COc1cc(C2C3=C(COC3=O)N(CCc3ccc(F)cc3)c3cc4c(cc32)OCO4)cc(OC)c1OC` (stereo not shown) [Compound 25, 6,7-Methylenedioxy-4-[2-(4-fluorophenyl)-ethyl]-9-(3,4,5-trimethoxyphenyl)-4,9-dihydro-3H-furo[3,4-b]quinolin-1-one]: the melting point fell in the range of 174 to 177 °C. Further, the IC50 in series [1] stood at 3.3 µg/mL (≈ 6.35 µM). Further, in the series with BXPC-3 (pancreas), the GI50 worked out at 0.9 µg/mL (≈ 1.73 µM). In the series on MCF-7 (breast), the concentration for 50% growth inhibition (GI50) came out at 0.42 µg/mL (≈ 0.808 µM). In addition, in the series with SF-268 (CNS), the GI50 worked out at 0.52 µg/mL (≈ 1 µM). The GI50 with NCI-H460 (lung) stood at 2.3 µg/mL (≈ 4.43 µM). The GI50 in the series on KM20L2 (colon) came out at 2.4 µg/mL (≈ 4.62 µM). Besides, the GI50 in the series on DU-145 (prostate) was found to be 2.5 µg/mL (≈ 4.81 µM).

In turn, `COc1cc(C2C3=C(COC3=O)Nc3cc4c(cc32)OCO4)cc(OC)c1OC` (stereo not shown) [Compound 15e, 6,7-Methylenedioxy-9-(3,4,5-trimethoxyphenyl)-4,9-dihydro-3H-furo[3,4-b]quinolin-1-one] registered a melting point of 273 to 275 °C. In addition, the “Murine P388 Lymphocytic Leukemia Inhibitory Activity (ED50)” value in series [2] was 0.0018 µg/mL.

`COc1cc(C2C3=C(COC3=O)N(CCCn3ccnc3)c3cc4c(cc32)OCO4)cc(OC)c1OC` (stereo not shown) [Compound 28, 6,7-Methylenedioxy-4-(3-imidazol-1-yl-propyl)-9-(3,4,5-trimethoxyphenyl)-4,9-dihydro-3H-furo[3,4-b]quinolin-1-one]: the melting point is 206 °C (dec.). Besides, in [1], the IC50 came out at 2 µg/mL (≈ 3.96 µM). In the series with BXPC-3 (pancreas), the GI50 stood at 2.9 µg/mL (≈ 5.74 µM). The concentration for 50% growth inhibition (GI50) in the series with MCF-7 (breast) is 0.64 µg/mL (≈ 1.27 µM). Further, the GI50 with SF-268 (CNS) came to 2.5 µg/mL (≈ 4.95 µM). Moreover, the GI50 with NCI-H460 (lung) came to 3 µg/mL (≈ 5.93 µM). The GI50 in the series with KM20L2 (colon) worked out at 2.2 µg/mL (≈ 4.35 µM). The GI50 in the series on DU-145 (prostate) turned out to be 2.1 µg/mL (≈ 4.15 µM).
